Measured values published in patent US7122679B2, “Multicyclic compounds and the use thereof” (Cephalon, Inc., priority 2000, dated 2006).

Biological target: recombinant human PARP (Homo sapiens, UniProt P09874)
Experiment: PARP activity: transfer of radiolabeled ADP-ribose units from [32P]NAD+ to a protein acceptor
Assay type: biochemical
Details: Table 3
Description: PARP activity was monitored by transfer of radiolabeled ADP-ribose units from [^32P]NAD^+ to a protein acceptor such as histone or PARP itself. […] The reactions were initiated by the addition of 100 μM NAD^+ supplemented with 2 uCi [^32P]NAD^+/mL and maintained at room temperature for 12 minutes. Assays were terminated by the addition of […] and the radiolabeled precipitate was collected on a 96-well filter plate (Millipore, MADP NOB 50), washed with 25% TCA. The amount of acid-insoluble radioactivity, corresponding to polyADP-ribosylated protein, was quantitated in a Wallac MicroBeta scintillation counter.
Single-point inhibition data were calculated by comparing PARP, VEGFR2, or MLK3 activity in the presence of inhibitor to activity in the presence of DMSO only. Inhibition curves for compounds were generated by plotting percent inhibition versus log10 of the concentration of compound. IC50 values were calculated by nonlinear regression using the sigmoidal dose-response (variable slope) equation in GraphPad Prism as follows: y=bottom+(top−bottom)/(1+10^(logIC^50^−x)*Hillslope) where y is the % activity at a given concentration of compound, x is the logarithm of the concentration of compound, bottom is the % inhibition at the lowest compound concentration tested, and top is the % inhibition at the highest compound concentration examined. […]

Sequence of recombinant human PARP (P09874 whole entry): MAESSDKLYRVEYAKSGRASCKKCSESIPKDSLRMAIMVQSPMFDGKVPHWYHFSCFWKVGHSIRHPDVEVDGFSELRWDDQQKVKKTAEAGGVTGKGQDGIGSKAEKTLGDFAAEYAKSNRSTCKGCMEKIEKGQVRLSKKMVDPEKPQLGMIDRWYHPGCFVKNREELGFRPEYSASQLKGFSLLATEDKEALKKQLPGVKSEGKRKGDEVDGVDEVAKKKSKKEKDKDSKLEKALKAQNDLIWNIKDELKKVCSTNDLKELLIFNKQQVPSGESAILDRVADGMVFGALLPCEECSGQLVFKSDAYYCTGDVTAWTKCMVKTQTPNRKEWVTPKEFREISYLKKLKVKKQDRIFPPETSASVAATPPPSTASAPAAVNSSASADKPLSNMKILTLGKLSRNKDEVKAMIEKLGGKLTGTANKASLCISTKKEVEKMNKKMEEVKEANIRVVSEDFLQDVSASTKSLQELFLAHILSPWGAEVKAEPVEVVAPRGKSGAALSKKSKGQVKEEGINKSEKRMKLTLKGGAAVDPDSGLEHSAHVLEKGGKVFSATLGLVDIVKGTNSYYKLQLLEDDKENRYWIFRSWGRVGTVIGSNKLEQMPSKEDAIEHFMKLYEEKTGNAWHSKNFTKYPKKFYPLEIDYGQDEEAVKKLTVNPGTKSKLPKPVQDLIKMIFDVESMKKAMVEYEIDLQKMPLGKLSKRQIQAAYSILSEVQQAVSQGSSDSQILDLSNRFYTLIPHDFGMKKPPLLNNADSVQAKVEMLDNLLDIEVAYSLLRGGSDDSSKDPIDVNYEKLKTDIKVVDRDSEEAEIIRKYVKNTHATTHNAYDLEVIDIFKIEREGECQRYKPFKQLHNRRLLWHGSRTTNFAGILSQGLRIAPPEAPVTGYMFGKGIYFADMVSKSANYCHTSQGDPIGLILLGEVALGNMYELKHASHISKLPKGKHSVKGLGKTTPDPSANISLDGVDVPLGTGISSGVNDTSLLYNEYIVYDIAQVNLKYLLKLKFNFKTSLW

IC50: 69 nM
Structure (SMILES): NCCCCC(N)C(=O)N1C(=O)c2c3c(c4[nH]c5ccc(Br)cc5c4c2C1=O)CCC3 (stereo not shown) [Compound 6e]
